Measured values from patent publication US20250249025A1, “DRUG DELIVERY CARRIER UTILIZING PROPERTY OF D-ALLOSE BEING UPTAKEN BY CANCER CELL, DRUG DELIVERY METHOD, AND COMPOSITION FOR TREATING RENAL CELL CARCINOMA” (NATIONAL UNIVERSITY CORPORATION KAGAWA UNIVERSITY, priority 2019, published 2025).

Key:
Format in all cases: cell-based
[1] = system: human bladder carcinoma cell line RT112; experiment: Rare sugar uptake experiment, sugar content in disrupted cell suspension of RT112; settings: RT112, 48 hours; for D-glucose content in cell: named sugar added to RPMI-1640 at 10 mM, HPLC after ABEE labeling
Method: (§1) An uptake amount of a rare sugar, which had been added to a medium, into carcinoma cells was analyzed using the cell lines of three types of cancers. As the rare sugar, four kinds, that is, D-allose, D-allulose (D-psicose), L-allulose (L-psicose), and allitol were used, while D-glucose and fructose were used as a monosaccharide which was not a rare sugar.
(§2) Cells of each of the cell lines were cultured in RPMI-1640 media and during culturing, six sugars were each added to the resulting media and cultured. After culturing, an amount of each sugar taken up into the cells was analyzed. The medium to which no sugar was added during culturing was used as a control.
(§3) Used were human bladder carcinoma cell lines (RT112, 253), and J82), human prostatic carcinoma cell lines (LNCa, Du145, and PC-3), and human renal cell carcinoma cell lines (ACHN, Caki-I, and Caki-II).
(§4) After cells were cultured in RPMI-1640 (2000 mg D-glucose/L) media, the above monosaccharides and rare sugars were added to the resulting media, respectively. Described specifically, they were following seven combinations: RPMI-1640 alone (control), RPMI-1640+D-glucose, RPMI-1640+L-allulose, RPMI-1640+D-allulose, RPMI-1640+D-fructose, RPMI-1640+D-allose, and RPMI-1640+D-allitol. The final concentration of the sugar in the medium was adjusted to 10 mM and no sugar was added in the control.
(§5) Five-ml portions of a 3.0×10^4 cells/ml cell suspension prepared using RPMI-1640 were seeded in dishes having a diameter of 6 cm (1.5×10^5 cells/dish) and cultured for 24 hours in the RPMI-1640 medium containing 2000 mg/l of D-glucose as a nutrient source. Twenty-four hours later, the media were changed to the culture solutions containing the monosaccharides and rare sugars described above in 2), respectively, followed by culturing for 48 hours.
(§6) After culturing for 48 hours, the attached human carcinoma cells were mechanically separated and collected in a Spitz tube together with the culture solution and floating cells. After the supernatant formed by centrifugation (4° C., 1200 rpm, and 5 minutes) was removed to obtain cell pellets alone, 5 ml of a phosphate buffer physiological saline (PBS) was added for the purpose of washing to obtain a cell suspension of the cell pellets. A gain, the resulting cell suspension was centrifuged at 4° C. and 1200 rpm for 5 minutes and the supernatant was removed. To the cell pellets after washing was added 1 ml of pure water to suspend them therein. Ultrasonic disruption (intensity: 40%, 30 seconds) was then performed and the monosaccharide in the disrupted cell suspension was labeled with ABEE, followed by analysis by HPLC. From the area thus obtained, the sugar content in the cells was determined using a calibration curve. With respect to the ketose, two peaks were found after labeling with ABEE so that the sugar content in the cells was determined from the calibration curves of both peaks.

[2] = system: human bladder carcinoma cell line J82; experiment: Rare sugar uptake experiment, sugar content in disrupted cell suspension of J82; settings: J82, 48 hours; for D-glucose content in cell: named sugar added to RPMI-1640 at 10 mM, HPLC after ABEE labeling
Method: as §1, §2, §3, §4, §5, §6

[3] = system: human prostate carcinoma cell line LNCa; experiment: Rare sugar uptake experiment, sugar content in disrupted cell suspension of LNCa; settings: LNCa, 48 hours; for D-glucose content in cell: named sugar added to RPMI-1640 at 10 mM, HPLC after ABEE labeling
Method: as §1, §2, §3, §4, §5, §6

[4] = system: human prostate carcinoma cell line Du145; experiment: Rare sugar uptake experiment, sugar content in disrupted cell suspension of Du145; settings: Du145, 48 hours; for D-glucose content in cell: named sugar added to RPMI-1640 at 10 mM, HPLC after ABEE labeling
Method: as §1, §2, §3, §4, §5, §6

[5] = system: human prostate carcinoma cell line PC-3; experiment: Rare sugar uptake experiment, sugar content in disrupted cell suspension of PC-3; settings: PC-3, 48 hours; for D-glucose content in cell: named sugar added to RPMI-1640 at 10 mM, HPLC after ABEE labeling
Method: as §1, §2, §3, §4, §5, §6

[6] = system: human renal cell carcinoma cell line Caki-II; experiment: Rare sugar uptake experiment, sugar content in disrupted cell suspension of Caki-II; settings: Caki-II, 48 hours; for D-glucose content in cell: named sugar added to RPMI-1640 at 10 mM, HPLC after ABEE labeling
Method: as §1, §2, §3, §4, §5, §6

[7] = system: human bladder carcinoma cell line 253J; experiment: Rare sugar uptake experiment, sugar content in disrupted cell suspension of 253J; settings: 253J, 48 hours; for D-glucose content in cell: named sugar added to RPMI-1640 at 10 mM, HPLC after ABEE labeling
Method: as §1, §2, §3, §4, §5, §6

[8] = system: human renal cell carcinoma cell line Caki-I; experiment: Rare sugar uptake experiment, sugar content in disrupted cell suspension of Caki-I; settings: Caki-I, 48 hours; for D-glucose content in cell: named sugar added to RPMI-1640 at 10 mM, HPLC after ABEE labeling
Method: as §1, §2, §3, §4, §5, §6

[9] = system: human renal cell carcinoma cell line ACHN; experiment: Rare sugar uptake experiment, sugar content in disrupted cell suspension of ACHN; settings: ACHN, 48 hours; for D-glucose content in cell: named sugar added to RPMI-1640 at 10 mM, HPLC after ABEE labeling
Method: as §1, §2, §3, §4, §5, §6

[10] = sugar added to RPMI-1640 at 10 mM, ketoses: range from two peaks

Row | SMILES | D-glucose content in cell [1] [µg] | D-glucose content in cell [2] [µg] | D-glucose content in cell [3] [µg] | D-glucose content in cell [4] [µg] | D-glucose content in cell [5] [µg] | D-glucose content in cell [6] [µg] | D-glucose content in cell [7] [µg] | D-glucose content in cell [8] [µg] | D-glucose content in cell [9] [µg] | Content in cell of the added sugar [1, 10] [µg] | Content in cell of the added sugar [2, 10] [µg] | Content in cell of the added sugar [3, 10] [µg] | Content in cell of the added sugar [4, 10] [µg] | Content in cell of the added sugar [5, 10] [µg] | Content in cell of the added sugar [6, 10] [µg] | Content in cell of the added sugar [7, 10] [µg] | Content in cell of the added sugar [8, 10] [µg] | Content in cell of the added sugar [9, 10] [µg]
1 | O=C(CO)[C@H](O)[C@H](O)[C@H](O)CO [D-allulose] | 3.4 | 2.1 | 7.5 | 3.9 | 1.6 | 3.1 | 0.6 | 2.3 | 1.9 |  |  |  |  |  |  |  |  | 
2 | O=C(CO)[C@@H](O)[C@@H](O)[C@@H](O)CO [L-allulose] | 3.9 | 1.9 | 10.2 | 2.5 | 1.5 | 1.7 | 0.5 | 2.3 | 2.1 |  |  |  |  |  |  |  |  | 
3 | O=C[C@H](O)[C@@H](O)[C@H](O)[C@H](O)CO [D-glucose] | 16.7 | 7.2 | 6.5 | 4.4 | 6.7 | 8.4 | 4.0 | 4.4 | 5.6 |  |  |  |  |  |  |  |  | 
4 | OC[C@@H](O)[C@@H](O)[C@@H](O)[C@@H](O)CO [allitol] | 3.6 | 2.4 | 9.2 | 4.5 | 2.1 | 4.3 | 0.5 | 2.4 | 1.8 |  |  |  |  |  |  |  |  | 
5 | O=C(CO)[C@@H](O)[C@H](O)[C@H](O)CO [D-fructose] | 4.4 | 2.7 | 4.1 | 4.2 | 2.7 | 3.6 | 3.3 | 2.5 | 2.1 | 12.7 to 15.7 | 11.1 to 15.0 | 0.0 | 12.9 to 17.0 | 16.5 to 20.1 | 20.4 to 21.3 | 0.0 | 16.7 to 20.7 | 16.8 to 19.0
